From PubChem BioAssay (NCI)
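Exposure lasted 48 hours, with cells grown in 96-well plates and compounds tested at five concentrations. Here, GI50 denotes the concentration required for 50% inhibition of growth. The concentration for full growth arrest is given as TGI.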

Legend:
Experiment in all cases: inhibition of tumour cell growth, NCI panel, 48 h
SK-OV-3 ovarian = tested on: SK-OV-3 ovarian
SK-MEL-28 melanoma = tested on: SK-MEL-28 melanoma
SNB-19 CNS = tested on: SNB-19 CNS
IGROV1 ovarian = tested on: IGROV1 ovarian
SF-295 CNS = tested on: SF-295 CNS
RXF 393 renal = tested on: RXF 393 renal
K-562 leukemia = tested on: K-562 leukemia
MALME-3M melanoma = tested on: MALME-3M melanoma
UACC-62 melanoma = tested on: UACC-62 melanoma
HOP-92 NSCLC = tested on: HOP-92 NSCLC
A498 renal = tested on: A498 renal
NCI-H460 lung = tested on: NCI-H460 lung
OVCAR-8 ovarian = tested on: OVCAR-8 ovarian
SR leukemia = tested on: SR leukemia
OVCAR-5 ovarian = tested on: OVCAR-5 ovarian
DU-145 prostate = tested on: DU-145 prostate
786-0 renal = tested on: 786-0 renal
A549 NSCLC = tested on: A549 NSCLC
UACC-257 melanoma = tested on: UACC-257 melanoma
PC-3 prostate = tested on: PC-3 prostate
T-47D breast = tested on: T-47D breast
NCI-H23 lung = tested on: NCI-H23 lung
SF-539 CNS = tested on: SF-539 CNS
MCF7 breast = tested on: MCF7 breast
OVCAR-4 ovarian = tested on: OVCAR-4 ovarian
UO-31 renal = tested on: UO-31 renal
ACHN renal = tested on: ACHN renal
HCT-15 colon = tested on: HCT-15 colon
HOP-62 NSCLC = tested on: HOP-62 NSCLC
HCC-2998 colon = tested on: HCC-2998 colon
TK-10 renal = tested on: TK-10 renal
MDA-MB-231 breast = tested on: MDA-MB-231 breast
MOLT-4 leukemia = tested on: MOLT-4 leukemia
HT29 colon = tested on: HT29 colon
HS 578T breast = tested on: HS 578T breast
HCT-116 colon = tested on: HCT-116 colon
EKVX NSCLC = tested on: EKVX NSCLC
SK-MEL-5 melanoma = tested on: SK-MEL-5 melanoma
LOX IMVI melanoma = tested on: LOX IMVI melanoma
OVCAR-3 ovarian = tested on: OVCAR-3 ovarian
CAKI-1 renal = tested on: CAKI-1 renal
SN12C renal = tested on: SN12C renal
SNB-75 CNS = tested on: SNB-75 CNS
U251 CNS = tested on: U251 CNS
CCRF-CEM leukemia = tested on: CCRF-CEM leukemia
KM12 colon = tested on: KM12 colon
HL-60(TB) leukemia = tested on: HL-60(TB) leukemia
RPMI-8226 leukemia = tested on: RPMI-8226 leukemia
SF-268 CNS = tested on: SF-268 CNS
COLO 205 colon = tested on: COLO 205 colon
SW-620 colon = tested on: SW-620 colon
BT-549 breast = tested on: BT-549 breast
NCI-H226 lung = tested on: NCI-H226 lung
NCI-H522 lung = tested on: NCI-H522 lung

NC(=Nc1ccc(OCCCCCCCCn2ccnn2)cc1)c1ccccc1
GI50 (SK-OV-3 ovarian): 532 nM
TGI (SK-OV-3 ovarian): 32.8 µM
GI50 (SK-MEL-28 melanoma): 662 nM
TGI (SK-MEL-28 melanoma): 22.9 µM
GI50 (SNB-19 CNS): 757 nM
TGI (SNB-19 CNS): > 49.9 µM
GI50 (IGROV1 ovarian): 564 nM
TGI (IGROV1 ovarian): 16.8 µM
GI50 (SF-295 CNS): 204 nM
TGI (SF-295 CNS): 11.5 µM
GI50 (RXF 393 renal): 304 nM
TGI (RXF 393 renal): 6.29 µM
GI50 (K-562 leukemia): 144 nM
TGI (K-562 leukemia): > 56 µM
GI50 (MALME-3M melanoma): 300 nM
TGI (MALME-3M melanoma): 15.9 µM
GI50 (UACC-62 melanoma): 215 nM
TGI (UACC-62 melanoma): 13.1 µM
GI50 (HOP-92 NSCLC): 1200 nM
TGI (HOP-92 NSCLC): 28.8 µM
GI50 (A498 renal): 4.75 µM
TGI (A498 renal): 28.4 µM
GI50 (NCI-H460 lung): 208 nM
TGI (NCI-H460 lung): 10.3 µM
GI50 (OVCAR-8 ovarian): 462 nM
TGI (OVCAR-8 ovarian): 3.97 µM
GI50 (SR leukemia): 606 nM
TGI (SR leukemia): > 100 µM
GI50 (OVCAR-5 ovarian): 432 nM
TGI (OVCAR-5 ovarian): 17.3 µM
GI50 (DU-145 prostate): 446 nM
TGI (DU-145 prostate): 24.6 µM
GI50 (786-0 renal): 643 nM
TGI (786-0 renal): > 44.1 µM
GI50 (A549 NSCLC): 458 nM
TGI (A549 NSCLC): > 46.3 µM
GI50 (UACC-257 melanoma): 952 nM
TGI (UACC-257 melanoma): 18.5 µM
GI50 (PC-3 prostate): 337 nM
TGI (PC-3 prostate): > 44.9 µM
GI50 (T-47D breast): 449 nM
TGI (T-47D breast): 34.4 µM
GI50 (NCI-H23 lung): 458 nM
TGI (NCI-H23 lung): 17.9 µM
GI50 (SF-539 CNS): 239 nM
TGI (SF-539 CNS): 870 nM
GI50 (MCF7 breast): 124 nM
TGI (MCF7 breast): 18.8 µM
GI50 (OVCAR-4 ovarian): 4.26 µM
TGI (OVCAR-4 ovarian): > 62.9 µM
GI50 (UO-31 renal): 565 nM
TGI (UO-31 renal): 19.9 µM
GI50 (ACHN renal): 714 nM
TGI (ACHN renal): 24.7 µM
GI50 (HCT-15 colon): 236 nM
TGI (HCT-15 colon): 22.9 µM
GI50 (HOP-62 NSCLC): 466 nM
TGI (HOP-62 NSCLC): 15 µM
GI50 (HCC-2998 colon): 535 nM
TGI (HCC-2998 colon): 11.2 µM
GI50 (TK-10 renal): 3000 nM
TGI (TK-10 renal): 45 µM
GI50 (MDA-MB-231 breast): 557 nM
TGI (MDA-MB-231 breast): 12.7 µM
GI50 (MOLT-4 leukemia): 585 nM
TGI (MOLT-4 leukemia): > 49.6 µM
GI50 (HT29 colon): 293 nM
TGI (HT29 colon): 884 nM
GI50 (HS 578T breast): 271 nM
TGI (HS 578T breast): 7.44 µM
GI50 (HCT-116 colon): 325 nM
TGI (HCT-116 colon): 12.7 µM
GI50 (EKVX NSCLC): 286 nM
TGI (EKVX NSCLC): > 40.9 µM
GI50 (SK-MEL-5 melanoma): 157 nM
TGI (SK-MEL-5 melanoma): 1720 nM
GI50 (LOX IMVI melanoma): 482 nM
TGI (LOX IMVI melanoma): 13.1 µM
GI50 (OVCAR-3 ovarian): 126 nM
TGI (OVCAR-3 ovarian): 5 µM
GI50 (CAKI-1 renal): 260 nM
TGI (CAKI-1 renal): 21 µM
GI50 (SN12C renal): 495 nM
TGI (SN12C renal): 16.1 µM
GI50 (SNB-75 CNS): 163 nM
TGI (SNB-75 CNS): 29.2 µM
GI50 (U251 CNS): 427 nM
TGI (U251 CNS): 28.8 µM
GI50 (CCRF-CEM leukemia): 271 nM
TGI (CCRF-CEM leukemia): 19.4 µM
GI50 (KM12 colon): 269 nM
TGI (KM12 colon): 19 µM
GI50 (HL-60(TB) leukemia): 239 nM
TGI (HL-60(TB) leukemia): 2900 nM
GI50 (RPMI-8226 leukemia): 404 nM
TGI (RPMI-8226 leukemia): 17.8 µM
GI50 (SF-268 CNS): 1170 nM
TGI (SF-268 CNS): 25.4 µM
GI50 (COLO 205 colon): 238 nM
TGI (COLO 205 colon): 1140 nM
GI50 (SW-620 colon): 148 nM
TGI (SW-620 colon): > 40.8 µM
GI50 (BT-549 breast): 656 nM
TGI (BT-549 breast): 12.2 µM
GI50 (NCI-H226 lung): 853 nM
TGI (NCI-H226 lung): 12.1 µM
GI50 (NCI-H522 lung): 207 nM
TGI (NCI-H522 lung): 1900 nM
